Data taken from patent US20060276464A1, “Diarylsulfone sulfonamides and use thereof” (Wyeth, priority 2005, published 2006).

Columns and labels:
[1] = biological target: T1, SFRP-1 (Homo sapiens, UniProt Q8N474); assay: Cell-based assay for in vitro measurement of SFRP-1/SARP2 antagonist activity (U2OS cells co-transfected with 16x TCF-tk-Luciferase reporter, Wnt and hSFRP-1); conditions: for fold induction at 10 µM: U2OS, read-out: Fold Induction with SFRP-1, U2OS cells, single dose 10 μM, luciferase reporter, fold induction over SFRP-1 control;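 for all read-outs here: U2OS cells co-transfected with a TCF-tk luciferase reporter, a Wnt vector, hSFRP-1 or empty vector and CMV-βgal, luciferase luminescence read in cell lysates alongside βgal activity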
T1 sequence (Q8N474 32-314): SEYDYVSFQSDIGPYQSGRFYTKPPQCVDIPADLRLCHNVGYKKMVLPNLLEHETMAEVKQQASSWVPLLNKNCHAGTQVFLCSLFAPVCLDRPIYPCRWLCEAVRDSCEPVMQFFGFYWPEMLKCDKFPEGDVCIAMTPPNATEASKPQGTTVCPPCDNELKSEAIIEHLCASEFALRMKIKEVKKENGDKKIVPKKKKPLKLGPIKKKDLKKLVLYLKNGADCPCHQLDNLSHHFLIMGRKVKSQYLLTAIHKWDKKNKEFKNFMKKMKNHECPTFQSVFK

[2] = biological target: T1, SFRP-1; assay: Fluorescence polarization binding assay (competitive displacement of a probe compound from SFRP-1); conditions: fluorescence anisotropy, 45 nM SFRP-1, 20 nM probe;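 note: test compound competes with a fluorescent probe held by SFRP-1, seen as a drop in probe anisotropy after incubation in darkness, with anisotropy as function of rising compound dose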

Row | EC50 [1] [nM] | fold induction at 10 µM [1] | IC50 [2] [nM] | Compound
1 | 5260 | 1.6 | 1400 | O=C(O)CCC(=O)N1CCCC1CCNS(=O)(=O)c1cc(S(=O)(=O)c2ccccc2)ccc1C(F)(F)F (stereo not drawn) [Example 919, 4-oxo-4-{2-[2-({[5-(phenylsulfonyl)-2-(trifluoromethyl)phenyl]sulfonyl}amino)ethyl]pyrrolidin-1-yl}butanoic acid]
2 | 1810 | 2.2 | 280 | O=C(O)c1cccc(S(=O)(=O)N2CCCC2CCNS(=O)(=O)c2cc(S(=O)(=O)c3ccccc3)ccc2C(F)(F)F)c1 (stereo not drawn) [Example 920, 3-({2-[2-({[5-(phenylsulfonyl)-2-(trifluoromethyl)phenyl]sulfonyl}amino)ethyl]pyrrolidin-1-yl)sulfonyl)benzoic acid]
3 | 2360 | 2.5 | 4000 | CCc1ccc(S(=O)(=O)c2ccccc2)cc1S(=O)(=O)NC1CCNCC1 [Example 921, 2-ethyl-5-(phenylsulfonyl)-N-piperidin-4-ylbenzenesulfonamide]
4 | 1870 | 2.4 | 10000 | Cc1cc(C)c(S(=O)(=O)c2ccccc2)cc1S(=O)(=O)NC1CCNCC1 [Example 923, 2,4-dimethyl-5-(phenylsulfonyl)-N-piperidin-4-ylbenzenesulfonamide]
5 | 1920 | 2.5 | 1800 | CC(C)c1ccc(S(=O)(=O)c2ccccc2)cc1S(=O)(=O)NC1CCNCC1 [Example 924, 2-isopropyl-5-(phenylsulfonyl)-N-piperidin-4-ylbenzenesulfonamide]
6 | 2150 | 3 | 8000 | CCCc1ccc(S(=O)(=O)c2ccccc2)cc1S(=O)(=O)NC1CCNCC1 [Example 925, 5-(phenylsulfonyl)-N-piperidin-4-yl-2-propylbenzenesulfonamide]
7 | 1360 | 3.6 | 500 | CN(CCNS(=O)(=O)c1cc(S(=O)(=O)c2ccccc2)ccc1C(F)(F)F)C(=O)N[C@H]1CCN(C(=O)OC(C)(C)C)C1 [Example 926, tert-butyl (3S)-3-[({methyl[2-({[5-(phenylsulfonyl)-2-(trifluoromethyl)phenyl]sulfonyl}amino)ethyl]amino}carbonyl)amino]pyrrolidine-1-carboxylate]
8 | 4510 | 2.1 | 2400 | CN(CCCNS(=O)(=O)c1cc(S(=O)(=O)c2ccccc2)ccc1C(F)(F)F)C(=O)OC(C)(C)C [Example 927, tert-butyl methyl[3-({[5-(phenylsulfonyl)-2-(trifluoromethyl)phenyl]sulfonyl}amino)propyl]carbamate]
9 | 380 | 3.9 | 180 | Nc1ccc(CCNS(=O)(=O)c2cc(S(=O)(=O)c3ccccc3)ccc2C(F)(F)F)cc1 [Example 928, N-[2-(4-aminophenyl)ethyl]-5-(phenylsulfonyl)-2-(trifluoromethyl)benzenesulfonamide]
10 | 3320 | 2.9 | 4000 | CNCCCNS(=O)(=O)c1cc(S(=O)(=O)c2ccccc2)ccc1C(F)(F)F [Example 929, N-[3-(methylamino)propyl]-5-(phenylsulfonyl)-2-(trifluoromethyl)benzenesulfonamide]
11 | 1300 | 2.9 | 4000 | CC(C)(C)OC(=O)N1CCC(CCNS(=O)(=O)c2cc(S(=O)(=O)c3ccccc3)ccc2C(F)(F)F)CC1 [Example 931, tert-butyl 4-[2-({[5-(phenylsulfonyl)-2-(trifluoromethyl)phenyl]sulfonyl}amino)ethyl]piperidine-1-carboxylate]
12 | 1860 | 2.8 | 3000 | COC(=O)C1CCCC(NS(=O)(=O)c2cc(S(=O)(=O)c3ccccc3)ccc2C(C)C)C1 (stereo not drawn) [Example 932, methyl 3-({[2-isopropyl-5-(phenylsulfonyl)phenyl]sulfonyl}amino)cyclohexanecarboxylate]
